In patent publication US5059601A, “Imidazolone derivatives with activity on central nervous system and antihypertensive activity, preparation methods thereof, and pharmaceutical compositions containing them” (Istituto Lusofarmaco d'Italia S.p.A., priority 1989, dated 1991):

Key:
[1] = tested on: SHR rat; experiment: antihypertensive activity in SHR rat after oral administration; type: in vivo; conditions: dose of 10 mg/kg/os
Excerpt: Said compounds have in vitro good affinity against D2, 5-HT2, α1 receptors determined towards [3H]Spiperone, [3H]-ketanserine, and [3H]-prazosine respectively, using the methods described by Y.Z. Fields, R.D. Reisine, H.I. Yamamura, Brain Research 136, 578 (1977); Y.E. Leysen, C.Y.E. Nyemegers, Y.M. Van Neuten, P.M. Endladurong, Mol Pharmacol. 21, 322 (1981); P. Greengrass, R. Bremner, Eur. J. Pharmacol. 55, 323 (1979). They show a reduced toxicity in vivo, a good activity on central nervous system in various behaviour tests (e.g. stereotypy caused by apomorfine, central dopaminergic neuronal firing) and a good antihypertensive activity (determined in SHR rat after oral administration using the method reported by J. Pfeffer and others, J. Lab. Clin. Med. 78, 957 (1971)).

[2] = toxicity in rat (DL50, oral); conditions: in vivo, read-out: toxicity in rat expressed as DL50

## COc1ccccc1N1CCN(CCc2[nH]c(=O)[nH]c2-c2ccc(F)cc2)CC1 [4-(4-fluorophenyl)-1,3-dihydro-5-[2-(4-(2-methoxyphenyl)-1-piperazinyl)ethyl]-2H-imidazol-2-one]
[1]
  decrease in systolic pressure: about 21%
[2]
  LD50: > 2000 mg/kg
